Assays:
[1] = Storage stability of the solid at 40° C. and 75% humidity, related substances analysed by HPLC; assay type: physicochemical; settings: for Amount of related substances increased: related substance content: 40° C., 75% RH
Method: The HPLC analysis conditions were as described in (3) Dibekacin and (4) Related substance in the purity test for arbekacin sulfate in the Japanese Pharmacopoeia Sixteen Edition.
Specifically, arbekacin free base was stored at 40° C. and a humidity of 75% for 1 month and 2 months, and the amount of related substances changed was analyzed by HPLC.

[2] = Moisture-absorbing properties on storage at 40° C. at defined humidity; assay type: physicochemical; settings: stored at 40° C.

Amount of related substances increased: related substance content ([1]; 1-month storage): 1.7% | Amount of related substances increased: related substance content ([1]; 2-month storage): 4.3% | amount of the related substances changed (i.e., the amount increased) ([1]; stored at 40° C. and a humidity of 75% for 1 month and 2 months): ≥ 4% | moisture-absorbing properties ([2]; Humidity 12%): 1.60 | moisture-absorbing properties ([2]; Humidity 22%): 4.62 | moisture-absorbing properties ([2]; Humidity 30%): 6.25 | moisture-absorbing properties ([2]; Humidity 43%): 7.54 | moisture-absorbing properties ([2]; Humidity 53%): 9.14
Compound: NCC[C@H](O)C(=O)N[C@@H]1C[C@H](N)[C@@H](O[C@H]2O[C@H](CN)CC[C@H]2N)[C@H](O)[C@H]1O[C@H]1O[C@H](CO)[C@@H](O)[C@H](N)[C@H]1O [arbekacin free base, Arbekacin]
